Measured values taken from patent publication US12577245B2, “Sulfonyl benzamide derivatives as Bcl-2 inhibitors” (ASCENTAGE PHARMA (SUZHOU) CO., LTD., priority 2021, dated 2026).

Experiments:
Bcl-2 WT = Bcl-2 WT (Homo sapiens, UniProt P10415); assay: Bcl-2 WT inhibition, fluorescence polarization (Flu-BIM tracer) binding assay; conditions: FP; 20 nM Bcl2, 5 nM Flu-BIM, 1 h incubation; read-out: Bcl-2 w.t. (FP)
MV-4-11 cells = assay: CCK-8 cell viability assay in MV-4-11 cells; format: cell-based; conditions: Homo sapiens, MV4-11, 72 h, 10% FBS, 3 days
How it was run: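 MV-4-11 cells (20000/well) were exposed to serially diluted compound for 3 days at 37 °C. Viability was then measured with CCK-8 (1–4 h, absorbance 450 nm). IC50 was derived from readings normalized to vehicle.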

RS4; 11Bcl-2-G101V cells = assay: CellTiter-Glo (CTG) cell viability assay in RS4;11-Bcl-2-G101V cells; format: cell-based; conditions: 72 h, 10% FBS, 3 days
How it was run: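 Engineered RS4;11 lines carrying Bcl-2 mutants, 10000 cells/well in RPMI-1640 with 10% FBS, exposed to serially diluted compound for 3 days at 37 °C, 5% CO2. Viability read by CellTiter-Glo luminescence, normalized to vehicle; IC50 calculated.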

Sequence of Bcl-2 WT (P10415 whole entry): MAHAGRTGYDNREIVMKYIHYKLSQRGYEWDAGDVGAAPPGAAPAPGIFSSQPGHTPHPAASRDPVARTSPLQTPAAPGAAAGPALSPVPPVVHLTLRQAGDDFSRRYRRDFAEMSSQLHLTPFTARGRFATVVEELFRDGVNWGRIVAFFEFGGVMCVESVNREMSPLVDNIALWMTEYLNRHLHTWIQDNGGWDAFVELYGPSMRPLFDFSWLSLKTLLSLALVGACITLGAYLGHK

| Structure (SMILES) | IC50 (Bcl-2 WT) | IC50 (MV-4-11 cells) | IC50 (RS4; 11Bcl-2-G101V cells) |
| --- | --- | --- | --- |
| CC1(C)CCC(CN2CCN(c3ccc(C(=O)NS(=O)(=O)c4ccc(NC[C@H]5CC[C@](C)(O)CC5)c([N+](=O)[O-])c4)c(Oc4cnc5[nH]ccc5c4)c3)CC2)=C(c2cc(-c3c(F)cc(C(C)(O)C4CC4)cc3F)cs2)C1 (stereo partly drawn) [Example 69, 2-((1H-pyrrolo[2,3-b]pyridin-5-yl)oxy)-4-(4-((2-(4-(4-(1-cyclopropyl-1-hydroxyethyl)-2,6-difluorophenyl)thiophen-2-yl)-4,4-dimethylcyclohex-1-en-1-yl)methyl)piperazin-1-yl)-N-((4-((((1r,4r)-4-hydroxy-4-methylcyclohexyl)methyl)amino)-3-nitrophenyl)sulfonyl)benzamide] | 24.8 nM | 473 nM | 300 nM |
| CC1(C)CCC(CN2CCN(c3ccc(C(=O)NS(=O)(=O)c4ccc(NC[C@H]5CC[C@](C)(O)CC5)c([N+](=O)[O-])c4)c(Oc4cnc5[nH]ccc5c4)c3)CC2)=C(c2cc(-c3cccc(C(C)(C)O)c3)cs2)C1 [Example 70, 2-((1H-pyrrolo[2,3-b]pyridin-5-yl)oxy)-N-((4-((((1r,4r)-4-hydroxy-4-methylcyclohexyl)methyl)amino)-3-nitrophenyl)sulfonyl)-4-(4-((2-(4-(3-(2-hydroxypropan-2-yl)phenyl)thiophen-2-yl)-4,4-dimethylcyclohex-1-en-1-yl)methyl)piperazin-1-yl)benzamide] | 19.8 nM | 95 nM | 1460 nM |
| CC1(C)CCC(CN2CCN(c3ccc(C(=O)NS(=O)(=O)c4ccc(NC[C@H]5CC[C@](C)(O)CC5)c([N+](=O)[O-])c4)c(Oc4cnc5[nH]ccc5c4)c3)CC2)=C(c2cc(-c3ccc(C(C)(C)O)c(F)c3)cs2)C1 [Example 71, 2-((1H-pyrrolo[2,3-b]pyridin-5-yl)oxy)-4-(4-((2-(4-(3-fluoro-4-(2-hydroxypropan-2-yl)phenyl)thiophen-2-yl)-4,4-dimethylcyclohex-1-en-1-yl)methyl)piperazin-1-yl)-N-((4-((((1r,4r)-4-hydroxy-4-methylcyclohexyl)methyl)amino)-3-nitrophenyl)sulfonyl)benzamide] | 15.4 nM | 12 nM | 330 nM |
| CC(CO)c1ccc(-c2csc(C3=C(CN4CCN(c5ccc(C(=O)NS(=O)(=O)c6ccc(NC[C@H]7CC[C@](C)(O)CC7)c([N+](=O)[O-])c6)c(Oc6cnc7[nH]ccc7c6)c5)CC4)CCC(C)(C)C3)c2)c(F)c1 (stereo partly drawn) [Example 72, 2-((1H-pyrrolo[2,3-b]pyridin-5-yl)oxy)-4-(4-((2-(4-(2-fluoro-4-(1-hydroxypropan-2-yl)phenyl)thiophen-2-yl)-4,4-dimethylcyclohex-1-en-1-yl)methyl)piperazin-1-yl)-N-((4-((((1r,4r)-4-hydroxy-4-methylcyclohexyl)methyl)amino)-3-nitrophenyl)sulfonyl)benzamide] | 20.5 nM | 12 nM | 440 nM |
| CC(C)(O)Cc1ccc(-c2csc(C3=C(CN4CCN(c5ccc(C(=O)NS(=O)(=O)c6ccc(NC[C@H]7CC[C@](C)(O)CC7)c([N+](=O)[O-])c6)c(Oc6cnc7[nH]ccc7c6)c5)CC4)CCC(C)(C)C3)c2)c(F)c1 [Example 73, 2-((1H-pyrrolo[2,3-b]pyridin-5-yl)oxy)-4-(4-((2-(4-(2-fluoro-4-(2-hydroxy-2-methylpropyl)phenyl)thiophen-2-yl)-4,4-dimethylcyclohex-1-en-1-yl)methyl)piperazin-1-yl)-N-((4-((((1r,4r)-4-hydroxy-4-methylcyclohexyl)methyl)amino)-3-nitrophenyl)sulfonyl)benzamide] | 23.7 nM | 8 nM | 490 nM |
| CC1(C)CCC(CN2CCN(c3ccc(C(=O)NS(=O)(=O)c4ccc(NC[C@H]5CC[C@](C)(O)CC5)c([N+](=O)[O-])c4)c(Oc4cnc5[nH]ccc5c4)c3)CC2)=C(c2cc(-c3c(F)cc(C(C)(C)CO)cc3F)cs2)C1 [Example 74, 2-((1H-pyrrolo[2,3-b]pyridin-5-yl)oxy)-4-(4-((2-(4-(2,6-difluoro-4-(1-hydroxy-2-methylpropan-2-yl)phenyl)thiophen-2-yl)-4,4-dimethylcyclohex-1-en-1-yl)methyl)piperazin-1-yl)-N-((4-((((1r,4r)-4-hydroxy-4-methylcyclohexyl)methyl)amino)-3-nitrophenyl)sulfonyl)benzamide] | 38.5 nM | 52 nM | 230 nM |
| CC1(C)CCC(CN2CCN(c3ccc(C(=O)NS(=O)(=O)c4ccc(NC[C@H]5CC[C@](C)(O)CC5)c([N+](=O)[O-])c4)c(Oc4cnc5[nH]ccc5c4)c3)CC2)=C(c2cc(-c3cc(C(C)(C)O)ccc3F)cs2)C1 [Example 75, 2-((1H-pyrrolo[2,3-b]pyridin-5-yl)oxy)-4-(4-((2-(4-(2-fluoro-5-(2-hydroxypropan-2-yl)phenyl)thiophen-2-yl)-4,4-dimethylcyclohex-1-en-1-yl)methyl)piperazin-1-yl)-N-((4-((((1r,4r)-4-hydroxy-4-methylcyclohexyl)methyl)amino)-3-nitrophenyl)sulfonyl)benzamide] | 19.2 nM | 118 nM | 1580 nM |
| CC1(C)CCC(CN2CCN(c3ccc(C(=O)NS(=O)(=O)c4ccc(NC[C@H]5CC[C@](C)(O)CC5)c([N+](=O)[O-])c4)c(Oc4cnc5[nH]ccc5c4)c3)CC2)=C(c2cc(-c3ccc(C(C)(O)C(F)(F)F)cc3F)cs2)C1 (stereo partly drawn) [Example 78, 2-((1H-pyrrolo[2,3-b]pyridin-5-yl)oxy)-4-(4-((2-(4-(2-fluoro-4-(1,1,1-trifluoro-2-hydroxypropan-2-yl)phenyl)thiophen-2-yl)-4,4-dimethylcyclohex-1-en-1-yl)methyl)piperazin-1-yl)-N-((4-((((1r,4r)-4-hydroxy-4-methylcyclohexyl)methyl)amino)-3-nitrophenyl)sulfonyl)benzamide] | 16.8 nM | 59 nM | 580 nM |
| CC1(C)CCC(CN2CCN(c3ccc(C(=O)NS(=O)(=O)c4ccc(NC[C@H]5CC[C@](C)(O)CC5)c([N+](=O)[O-])c4)c(Oc4cnc5[nH]ccc5c4)c3)CC2)=C(c2cc(-c3ccc4c(c3)CCC4(C)O)cs2)C1 (stereo partly drawn) [Example 79, 2-((1H-pyrrolo[2,3-b]pyridin-5-yl)oxy)-4-(4-((2-(4-(1-hydroxy-1-methyl-2,3-dihydro-1H-inden-5-yl)thiophen-2-yl)-4,4-dimethylcyclohex-1-en-1-yl)methyl)piperazin-1-yl)-N-((4-((((1r,4r)-4-hydroxy-4-methylcyclohexyl)methyl)amino)-3-nitrophenyl)sulfonyl)benzamide] | 15.8 nM | 11 nM | 170 nM |
| CC(=O)NC(C)(C)c1cc(F)c(-c2csc(C3=C(CN4CCN(c5ccc(C(=O)NS(=O)(=O)c6ccc(NC[C@H]7CC[C@](C)(O)CC7)c([N+](=O)[O-])c6)c(Oc6cnc7[nH]ccc7c6)c5)CC4)CCC(C)(C)C3)c2)c(F)c1 [Example 80, 2-((1H-pyrrolo[2,3-b]pyridin-5-yl)oxy)-4-(4-((2-(4-(4-(2-acetamidopropan-2-yl)-2,6-difluorophenyl)thiophen-2-yl)-4,4-dimethylcyclohex-1-en-1-yl)methyl)piperazin-1-yl)-N-((4-((((1r,4r)-4-hydroxy-4-methylcyclohexyl)methyl)amino)-3-nitrophenyl)sulfonyl)benzamide] | 15.6 nM | 111 nM | 420 nM |
| Cc1sc(C2=C(CN3CCN(c4ccc(C(=O)NS(=O)(=O)c5ccc(NC[C@H]6CC[C@](C)(O)CC6)c([N+](=O)[O-])c5)c(Oc5cnc6[nH]ccc6c5)c4)CC3)CCC(C)(C)C2)cc1-c1c(F)cc(C(C)(C)O)cc1F [Example 81, 2-((1H-pyrrolo[2,3-b]pyridin-5-yl)oxy)-4-(4-((2-(4-(2,6-difluoro-4-(2-hydroxypropan-2-yl)phenyl)-5-methylthiophen-2-yl)-4,4-dimethylcyclohex-1-en-1-yl)methyl)piperazin-1-yl)-N-((4-((((1r,4r)-4-hydroxy-4-methylcyclohexyl)methyl)amino)-3-nitrophenyl)sulfonyl)benzamide] | 34.6 nM | 270 nM | 1710 nM |
| CC1(C)CCC(CN2CCN(c3ccc(C(=O)NS(=O)(=O)c4ccc(NC[C@H]5CC[C@](C)(O)CC5)c([N+](=O)[O-])c4)c(Oc4cnc5[nH]ccc5c4)c3)CC2)=C(c2cc(-c3c(F)cc(C(C)(C)C(=O)O)cc3F)cs2)C1 [Example 82, 2-(4-(5-(2-((4-(3-((1H-pyrrolo[2,3-b]pyridin-5-yl)oxy)-4-(((4-((((1r,4r)-4-hydroxy-4-methylcyclohexyl)methyl)amino)-3-nitrophenyl)sulfonyl)carbamoyl)phenyl)piperazin-1-yl)methyl)-5,5-dimethylcyclohex-1-en-1-yl)thiophen-3-yl)-3,5-difluorophenyl)-2-methylpropanoic acid] | 18.1 nM | 114 nM | 1270 nM |
